{
  "source": "patent US20210069269A1",
  "about": "“METHOD FOR ALLEVIATING TOBACCO OR NICOTINE WITHDRAWAL SYMPTOMS” (DANSTAR FERMENT AG, priority 2018, published 2021)",
  "system": "C. elegans wild type strain N2",
  "assay": "C. elegans behavioral toxicity (thrashing/swimming) assay after 24 hours exposure to nicotine or tobacco extract with or without probiotic bacteria",
  "details": "control worms with no bacteria, FIG. 1",
  "experimental": "Experiments were carried out with the wild type strain N2 of C. elegans. Worms were synchronized by isolating eggs from gravid adults, collecting the eggs in M9 buffer, hatching the eggs overnight in NGM plates and sterilely isolating L1-stage worms with M9 buffer. The L1-stage worms were transferred to NGM (Nematode Growth Medium) plates inoculated with Escherichia coli strain OP50 and incubated for four days at 15° C. to reach adulthood.\nSimilarly, a natural tobacco extract (ABT #6079, Advanced Biotech) was diluted in M9 buffer to a final concentration of 6.2 mM.\nAdult worms were washed in M9 buffer and 250 μl of worm suspension was transferred to 24-well culture plates with or without nicotine (250 μl if present) or tobacco extract (250 μl if present) and with or without probiotic suspension (500 μl if present). The probiotic suspension was added first to the wells followed by the nicotine or the tobacco extract. At least 40 worms were present per well. The plates were incubated at 20° C. for 24 hours. After incubation period, worm suspension in each well was washed three times in M9 buffer (centrifugation of four minutes at 1000 rpm). The worms were transferred in new 24-well culture plates containing 1 ml of agar 1% in each well. The worms were allowed to equilibrate for 45 minutes, and then the thrashing (swimming) was recorded using a Leica EC3 camera. […]",
  "data": [
    {"smiles": "CN1CCCC1c1cccnc1.O.O.O=C(O)C(O)C(O)C(=O)O.O=C(O)C(O)C(O)C(=O)O", "note": "(stereo not shown) [nicotine, Nicotine ditartrate dihydrate]", "values": [
      {"measurement": "behavioral toxicity of the challenge agent to worms without bacteria", "value": "induced a reversible paralysis"}
    ]}
  ]
}
